Target: EGFR (human) (UniProt P00533)
Sequence (P00533 whole entry, looked up): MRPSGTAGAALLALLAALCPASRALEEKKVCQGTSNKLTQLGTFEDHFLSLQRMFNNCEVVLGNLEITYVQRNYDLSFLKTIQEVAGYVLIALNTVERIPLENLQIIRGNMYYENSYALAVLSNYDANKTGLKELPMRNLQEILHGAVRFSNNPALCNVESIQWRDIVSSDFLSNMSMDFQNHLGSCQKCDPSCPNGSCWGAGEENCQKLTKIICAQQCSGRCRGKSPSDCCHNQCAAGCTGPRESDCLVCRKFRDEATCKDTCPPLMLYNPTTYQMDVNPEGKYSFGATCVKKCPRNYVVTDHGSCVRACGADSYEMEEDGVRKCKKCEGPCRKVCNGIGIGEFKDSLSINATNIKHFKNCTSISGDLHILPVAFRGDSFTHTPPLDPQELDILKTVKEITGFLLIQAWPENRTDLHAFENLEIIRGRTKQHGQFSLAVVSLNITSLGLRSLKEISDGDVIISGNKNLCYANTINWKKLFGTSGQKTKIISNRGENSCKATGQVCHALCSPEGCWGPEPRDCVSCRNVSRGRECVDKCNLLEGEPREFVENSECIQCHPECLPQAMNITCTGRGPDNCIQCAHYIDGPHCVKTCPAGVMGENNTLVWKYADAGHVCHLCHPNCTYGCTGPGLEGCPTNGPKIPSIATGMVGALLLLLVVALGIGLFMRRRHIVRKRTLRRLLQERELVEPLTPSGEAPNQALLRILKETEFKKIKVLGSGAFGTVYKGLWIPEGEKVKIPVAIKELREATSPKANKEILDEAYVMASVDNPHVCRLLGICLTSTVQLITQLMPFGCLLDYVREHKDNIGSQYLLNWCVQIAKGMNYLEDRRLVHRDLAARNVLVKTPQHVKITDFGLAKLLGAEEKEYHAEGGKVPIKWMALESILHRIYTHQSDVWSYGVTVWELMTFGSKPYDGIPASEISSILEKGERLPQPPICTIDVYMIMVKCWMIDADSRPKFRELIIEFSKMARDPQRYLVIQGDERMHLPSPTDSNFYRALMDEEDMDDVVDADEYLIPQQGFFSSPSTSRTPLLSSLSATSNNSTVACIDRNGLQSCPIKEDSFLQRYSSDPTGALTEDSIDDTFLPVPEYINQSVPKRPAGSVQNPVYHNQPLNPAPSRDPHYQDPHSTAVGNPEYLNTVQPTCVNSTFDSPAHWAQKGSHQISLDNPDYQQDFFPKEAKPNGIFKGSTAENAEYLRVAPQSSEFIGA

Row | SMILES | IC50
1 | CCCC(=O)Nc1ccc(Nc2ncnc3cc(OC)c(OC)cc23)cc1C | > 10 µM
2 | COc1cc2ncnc(Oc3ccc(NC(=O)NC4CCCCC4)cc3)c2cc1OC | > 10 µM
3 | CCCCC(=O)Nc1ccc(Nc2ncnc3cc(OC)c(OC)cc23)cc1C | > 10 µM
4 | COc1cc2ncnc(Oc3ccc(F)c(Cl)c3)c2cc1OC | > 10 µM
5 | CCOC(=O)Nc1ccc(Nc2ncnc3cc(OC)c(OC)cc23)cc1 | > 10 µM
6 | CCOC(=O)Nc1ccc(Nc2ncnc3cc(OC)c(OCCN(CC)CC)cc23)cc1C | > 10 µM
7 | COC(=O)Nc1ccc(Oc2ncnc3cc(OC)c(OC)cc23)cc1 | > 10 µM
8 | CCCCOc1cc2c(Nc3ccc(NC(=O)OCC)c(C)c3)ncnc2cc1OCCN(CC)CC | > 10 µM
9 | CCCCNC(=O)Nc1ccc(Oc2ncnc3cc(OC)c(OC)cc23)cc1 | > 10 µM
10 | CCOC(=O)Nc1ccc(Nc2ncnc3cc(OCCN(CC)CC)c(OC)cc23)cc1Cl | > 10 µM
11 | COc1cc2ncnc(Oc3ccc(NC(=O)Nc4ccc(F)cc4F)cc3)c2cc1OC | > 10 µM
12 | COc1ccc(NC(=O)Nc2cccc(Oc3ncnc4cc(OC)c(OC)cc34)c2)cc1 | > 10 µM
13 | COc1cc2ncnc(Oc3ccc(NC(=O)Nc4ccccc4)cc3)c2cc1OC | > 10 µM
14 | COc1ccc(NC(=O)Nc2ccc(Oc3ncnc4cc(OC)c(OC)cc34)cc2)cc1 | > 10 µM
15 | COc1cc2ncnc(Oc3ccc(NC(=O)Nc4ccc(F)c(Cl)c4)cc3)c2cc1OC | > 10 µM
16 | CCOC(=O)Nc1ccc(Oc2ncnc3cc(OC)c(OC)cc23)cc1 | > 10 µM
17 | COc1cc2ncnc(Nc3ccc(NC(=O)Nc4ccccc4)cc3)c2cc1OC | > 10 µM
18 | CCOC(=O)Nc1ccc(Nc2ncnc3cc(OCCN(CC)CC)c(OC)cc23)cc1C | > 10 µM
19 | COc1cc2ncnc(Nc3ccc(NC(=O)Nc4ccc(F)c(Cl)c4)cc3)c2cc1OC | > 10 µM
20 | COc1cc2ncnc(Oc3cccc(NC(=O)Nc4ccccc4)c3)c2cc1OC | > 10 µM
21 | COc1cc2ncnc(Oc3ccc(NC(=O)Nc4ccc(Br)cc4)cc3)c2cc1OC | > 10 µM
22 | COc1cc2ncnc(Oc3ccc(NC(=O)Nc4ccc5ccccc5c4)cc3)c2cc1OC | > 10 µM
